Where a name gives a salt, the structure may show the parent alone.
Tests used:
[1] = system: motility of the gastrointestinal (GI) tract; experiment: Animal models of gastrointestinal motility; type: in vivo
human mu opioid receptor [2] = molecular target: T1, human mu opioid receptor (Homo sapiens, UniProt P35372); experiment: Radioligand binding assay on human mu opioid receptor ([3H]-Diprenorphine displacement, CHO-K1 membranes); conditions: [3H]-Diprenorphine at 0.5 nM
[3] = system: loperamide-induced delayed gastric emptying; experiment: Rat gastric emptying assay (reversal of loperamide-induced delayed gastric emptying); type: in vivo; conditions: administered orally, loperamide 1 mg/kg s.c.
Method: In this assay the efficacy of test compounds was evaluated in a model of gastrointestinal transit, which evaluates peripheral activity. This study was approved by the Institutional Animal Care and Use Committee at […]. and conformed to the Guide for the Care and Use of Laboratory Animals published by the National Academy of Sciences (©1996). Test compounds were evaluated in the rat gastric emptying assay to determine their ability to reverse loperamide-induced delayed gastric emptying. Rats were fasted up overnight prior to administration of test compounds or vehicle by intravenous, subcutaneous, intramuscular or oral routes of administration at doses ranging from 0.001 to about 30 milligrams/kilogram (mg/kg). The administration of test compound was followed by subcutaneous administration of loperamide at a dose of 1 mg/kg or vehicle. […] Gastric weight was then determined after removal of the ligatures. Data was analyzed using the GraphPad Prism Software package (GraphPad Software, Inc., San Diego, Calif.). Percent reversal curves were constructed by non-linear regression analysis using the sigmoidal dose response (variable slope) model and best-fit ID50 values were calculated. […]

[4] = Dynamic moisture sorption assessment; type: physicochemical
Method: Dynamic moisture sorption (DMS) assessment was performed at 25° C. using a VTI atmospheric microbalance, SGA-100 system (VTI Corp., Hialeah, Fla. 33016). […] A typical DMS analysis consisted of three scans: ambient to 2% relative humidity (RH), 2% RH to 90% RH, 90% RH to 5% RH at a scan rate of 5% RH/step. The mass was measured every two minutes and the RH was changed to the next value (±5% RH) when the mass of the sample was stable to within 0.02% for 5 consecutive points. Representative DMS traces for samples of a crystalline sulfate salt and of a crystalline hydrate of a sulfate salt of compound 1 are shown in FIGS. 3 and 6, respectively.

[5] = Solid state stability assessment; type: physicochemical; conditions: for changes in DSC, TGA, XRPD results after storage: 4 weeks storage at elevated temperature and humidity
Method: Samples of the sulfate salt of the invention were stored in multiple open glass vials at 20° C. and 60% relative humidity (RH) and at 40° C. and 75% RH. At specific intervals, the contents of a representative vial was removed and analyzed by DSC, TGA, PXRD, and by HPLC for chemical purity. […] The chemical purity of the stored samples by HPLC was unchanged at 99.7%.

human mu opioid receptor [6] = molecular target: T1, human mu opioid receptor; experiment: biochemical; conditions: read-out: intrinsic activity (IA)

T1 sequence (P35372 whole entry): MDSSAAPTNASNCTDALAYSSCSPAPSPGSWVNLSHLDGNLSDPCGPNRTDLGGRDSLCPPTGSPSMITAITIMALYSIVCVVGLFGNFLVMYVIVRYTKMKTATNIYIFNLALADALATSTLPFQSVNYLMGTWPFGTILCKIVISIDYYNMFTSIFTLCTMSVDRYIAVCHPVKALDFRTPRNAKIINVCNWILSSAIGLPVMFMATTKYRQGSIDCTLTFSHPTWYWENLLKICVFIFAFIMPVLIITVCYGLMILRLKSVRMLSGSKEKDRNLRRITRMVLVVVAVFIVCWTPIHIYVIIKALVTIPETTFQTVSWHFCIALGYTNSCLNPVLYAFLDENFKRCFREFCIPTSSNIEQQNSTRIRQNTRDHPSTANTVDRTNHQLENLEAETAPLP

Row | Structure (SMILES) | effect on motility of the gastrointestinal tract [1] | Ki (human mu opioid receptor [2]) [pM] | ID50, dose required for 50% reversal of the effects of loperamide [3] [mg/kg] | weight change/gain on moisture sorption (hygroscopicity) ([4]; 2% to 90% relative humidity at room temperature) | deliquescence ([4]; up to about 90% relative humidity at room temperature) | changes in DSC, TGA, XRPD results after storage ([5]; listed as crystalline sulfate salt of compound 1) | changes in DSC, TGA, XRPD results after storage ([5]; listed as sulfate salt of the invention) | chemical purity of the stored samples by HPLC ([5]; 4 weeks storage, open vials, 20° C./60% RH and 40° C./75% RH) [%] | chemical degradation by HPLC ([5]; storage for 4 weeks at 40° C. and 75% relative humidity) | Emax (human mu opioid receptor [6]) [%]
1 | NC(=O)c1cccc(C2CC3CCC(C2)N3CCN(CC2CCCCC2)C(=O)[C@@H](O)CO)c1 (stereo partly drawn) [compound 1, 3-endo-(8-{2-[cyclohexylmethyl-((S)-2,3-dihydroxy-propionyl)amino]ethyl}-8-aza-bicyclo[3.2.1]oct-3-yl)benzamide] | increase motility of the gastrointestinal (GI) tract | – | – | – | – | – | – | – | – | –
2 | NC(=O)c1cccc(C2CC3CCC(C2)N3CCN(CC2CCCCC2)C(=O)[C@@H](O)CO)c1 (stereo partly drawn) [sulfate salt of compound 1, 3-endo-(8-{2-[cyclohexylmethyl-((S)-2,3-dihydroxy-propionyl)amino]ethyl}-8-aza-bicyclo[3.2.1]oct-3-yl)benzamide sulfate] | – | 126 | 0.26 | less than 0.3% | neither the crystalline sulfate salt of the invention nor the hydrate thereof is deliquescent | no detectable changes | no detectable change | 99.7 | no chemical degradation | -5
